In paper PMC6704710, “Preclinical evaluation of 3D185, a novel potent inhibitor of FGFR1/2/3 and CSF-1R, in FGFR-dependent and macrophage-dominant cancer models” (Journal of Experimental & Clinical Cancer Research : CR, 2019):

Tests used:
Format in all cases: biochemical
DMPK(h) = biological target: T1, DMPK(h) (Homo sapiens, UniProt Q09013); experiment: Eurofins kinase panel; conditions: read-out: Inhibition rate (%)
T1 construct: purchased Eurofins (KinaseProfiler)
T1 sequence (Q09013 1-629): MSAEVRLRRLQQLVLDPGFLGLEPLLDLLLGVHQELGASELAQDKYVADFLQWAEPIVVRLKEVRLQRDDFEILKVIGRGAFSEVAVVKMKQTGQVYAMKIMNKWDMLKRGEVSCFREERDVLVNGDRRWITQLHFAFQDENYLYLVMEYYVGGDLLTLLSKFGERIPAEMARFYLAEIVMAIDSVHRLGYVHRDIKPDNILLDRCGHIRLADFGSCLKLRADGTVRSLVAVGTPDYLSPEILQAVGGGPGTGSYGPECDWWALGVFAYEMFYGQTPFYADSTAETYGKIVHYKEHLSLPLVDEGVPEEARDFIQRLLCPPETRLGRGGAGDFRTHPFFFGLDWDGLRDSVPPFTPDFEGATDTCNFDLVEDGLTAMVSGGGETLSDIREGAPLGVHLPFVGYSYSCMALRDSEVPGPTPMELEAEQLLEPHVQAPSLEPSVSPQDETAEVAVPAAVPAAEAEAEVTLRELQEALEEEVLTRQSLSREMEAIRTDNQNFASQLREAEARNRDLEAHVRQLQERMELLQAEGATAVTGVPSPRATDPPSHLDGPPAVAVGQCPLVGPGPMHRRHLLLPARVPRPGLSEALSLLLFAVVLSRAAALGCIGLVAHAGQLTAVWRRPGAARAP

IRR(h) = biological target: T2, IRR(h) (Homo sapiens, UniProt P14616); experiment: Eurofins kinase panel; conditions: read-out: Inhibition rate (%)
T2 construct: purchased Eurofins (KinaseProfiler)
T2 sequence (P14616 27-1297): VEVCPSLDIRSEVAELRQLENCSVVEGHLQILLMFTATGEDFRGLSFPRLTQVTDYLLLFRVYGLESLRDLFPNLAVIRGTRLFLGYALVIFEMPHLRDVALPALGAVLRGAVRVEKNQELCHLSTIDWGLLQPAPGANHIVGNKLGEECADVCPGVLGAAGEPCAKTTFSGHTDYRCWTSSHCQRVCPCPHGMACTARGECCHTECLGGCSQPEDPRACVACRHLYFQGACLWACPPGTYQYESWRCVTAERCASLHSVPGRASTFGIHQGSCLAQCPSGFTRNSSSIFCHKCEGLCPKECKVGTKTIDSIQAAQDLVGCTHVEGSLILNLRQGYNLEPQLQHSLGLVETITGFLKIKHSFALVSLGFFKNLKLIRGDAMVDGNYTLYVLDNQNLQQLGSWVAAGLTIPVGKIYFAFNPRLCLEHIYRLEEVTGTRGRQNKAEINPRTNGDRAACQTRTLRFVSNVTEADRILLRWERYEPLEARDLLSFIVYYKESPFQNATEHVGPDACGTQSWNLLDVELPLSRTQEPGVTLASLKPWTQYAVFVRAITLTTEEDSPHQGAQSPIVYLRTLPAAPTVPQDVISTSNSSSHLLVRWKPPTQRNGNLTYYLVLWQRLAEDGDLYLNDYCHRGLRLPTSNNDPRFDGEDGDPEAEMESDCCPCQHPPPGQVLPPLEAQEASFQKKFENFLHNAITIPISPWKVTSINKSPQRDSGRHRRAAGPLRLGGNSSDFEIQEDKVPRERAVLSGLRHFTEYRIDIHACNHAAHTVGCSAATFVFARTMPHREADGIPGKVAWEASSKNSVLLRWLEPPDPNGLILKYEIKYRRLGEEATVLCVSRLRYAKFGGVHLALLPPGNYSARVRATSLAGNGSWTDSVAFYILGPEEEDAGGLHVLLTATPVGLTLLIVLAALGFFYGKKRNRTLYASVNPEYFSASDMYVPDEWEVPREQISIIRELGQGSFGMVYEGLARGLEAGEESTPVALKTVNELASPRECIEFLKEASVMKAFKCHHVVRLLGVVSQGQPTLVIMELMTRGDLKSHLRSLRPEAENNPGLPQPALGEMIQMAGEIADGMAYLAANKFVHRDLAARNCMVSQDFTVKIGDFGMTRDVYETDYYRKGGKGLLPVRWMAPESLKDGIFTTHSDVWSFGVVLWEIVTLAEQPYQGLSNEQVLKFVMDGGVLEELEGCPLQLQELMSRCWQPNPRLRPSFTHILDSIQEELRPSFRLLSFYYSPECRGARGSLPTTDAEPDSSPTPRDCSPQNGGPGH

VEGFR2 (KDR) = biological target: T3, VEGFR2 (KDR) (Homo sapiens, UniProt P35968); experiment: Kinase inhibition assay (ELISA)
T3 construct: purchased Eurofins (Fremont, United States)
T3 sequence (P35968 20-1356): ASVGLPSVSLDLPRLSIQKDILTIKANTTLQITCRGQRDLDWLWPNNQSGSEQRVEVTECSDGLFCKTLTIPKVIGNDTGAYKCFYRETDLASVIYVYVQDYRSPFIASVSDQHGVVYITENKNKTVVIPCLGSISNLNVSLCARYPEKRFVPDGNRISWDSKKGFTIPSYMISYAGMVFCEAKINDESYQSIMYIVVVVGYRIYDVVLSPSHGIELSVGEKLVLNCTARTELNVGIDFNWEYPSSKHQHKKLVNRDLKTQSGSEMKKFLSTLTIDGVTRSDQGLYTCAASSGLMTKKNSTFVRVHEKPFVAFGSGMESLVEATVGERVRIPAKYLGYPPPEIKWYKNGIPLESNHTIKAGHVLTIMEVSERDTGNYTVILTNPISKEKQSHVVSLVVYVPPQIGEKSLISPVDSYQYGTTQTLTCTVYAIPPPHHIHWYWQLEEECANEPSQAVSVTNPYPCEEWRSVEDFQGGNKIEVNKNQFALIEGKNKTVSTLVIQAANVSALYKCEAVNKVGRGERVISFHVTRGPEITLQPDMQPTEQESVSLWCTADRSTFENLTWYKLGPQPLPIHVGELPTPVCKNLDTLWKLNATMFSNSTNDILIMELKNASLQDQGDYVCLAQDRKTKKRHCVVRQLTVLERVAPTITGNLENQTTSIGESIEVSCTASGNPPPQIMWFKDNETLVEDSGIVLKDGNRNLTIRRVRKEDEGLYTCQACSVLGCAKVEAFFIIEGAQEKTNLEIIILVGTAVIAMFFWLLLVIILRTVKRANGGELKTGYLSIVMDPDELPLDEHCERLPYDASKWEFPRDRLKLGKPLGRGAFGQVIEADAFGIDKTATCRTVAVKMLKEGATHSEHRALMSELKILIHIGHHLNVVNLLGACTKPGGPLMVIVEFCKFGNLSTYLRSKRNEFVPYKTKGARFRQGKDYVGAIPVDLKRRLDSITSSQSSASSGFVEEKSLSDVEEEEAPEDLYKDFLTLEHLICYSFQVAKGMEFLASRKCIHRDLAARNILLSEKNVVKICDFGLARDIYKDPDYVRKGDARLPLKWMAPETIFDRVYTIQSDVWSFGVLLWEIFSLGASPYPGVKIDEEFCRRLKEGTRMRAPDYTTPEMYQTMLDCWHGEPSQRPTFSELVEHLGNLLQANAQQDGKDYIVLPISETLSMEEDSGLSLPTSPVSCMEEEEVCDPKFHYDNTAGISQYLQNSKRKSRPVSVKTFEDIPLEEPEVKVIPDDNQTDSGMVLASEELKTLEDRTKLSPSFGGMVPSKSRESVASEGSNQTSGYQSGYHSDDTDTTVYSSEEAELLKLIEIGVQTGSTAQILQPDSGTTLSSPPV

**Q.** How did the inhibition at 0.01 µM (DMPK(h); 10 nM) turn out when `COc1cc(OC)c(Cl)c(-c2ccc3c(NC(=O)c4ccc(N5CCNC(C)(C)C5)cc4)n[nH]c3n2)c1Cl` [3D185] was run?
**A.** 2%

**Q.** What about the inhibition at 0.1 µM (DMPK(h); 100 nM) of the same compound?
**A.** 3%

**Q.** And the inhibition at 1 µM (DMPK(h); 1000 nM)?
**A.** 2%

**Q.** And the inhibition at 0.01 µM (IRR(h); 10 nM)?
**A.** -5%

**Q.** What about the inhibition at 0.1 µM (IRR(h); 100 nM) of the same compound?
**A.** 5%

**Q.** And the inhibition at 1 µM (IRR(h); 1000 nM)?
**A.** 1%

**Q.** And the IC50 (VEGFR2 (KDR); mean ± SD)?
**A.** 382 nM

**Q.** And the “selectivity for FGFR1 over KDR” value (VEGFR2 (KDR); molecular kinase assays)?
**A.** over 760 fold
